Results as given in patent US20030129629A1, “Methods and compositions for the identification, assessment, prevention, and therapy of human cancers” (Millennium Pharmaceuticals, Inc., priority 2000, published 2003).
Read-outs that look alike come from different tables or passages of the source.

Columns and labels:
[1] = tested on: 60 cancer cell lines (NCI 60 cancer cell line series); assay: NCI-DTP in vitro cancer screen, sulforhodamine B (SRB) growth inhibition, 48 hour exposure; format: cell-based, human
In short: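 Potency is given as mean −log{GI50} from dose–response curves, manually binned into Low, Medium or High sensitivity. Sixty NCI-DTP tumour lines were treated 48 h with a duplicate, five-dose, ten-fold dilution series, and growth read by SRB staining of cell mass.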

[2] = tested on: 60 cancer cell lines (NCI 60 cancer cell line series); conditions: cited from earlier work

SMILES: CN(Cc1cnc2nc(N)nc(N)c2n1)c1ccc(C(=O)N[C@@H](CCC(=O)O)C(=O)O)cc1 [Methotrexate]
- classification of cell line as Low(1), Medium(2), High(3) sensitivity to compound ([1]; Breast BT-549 CL5013): 1
- classification of cell line as Low(1), Medium(2), High(3) sensitivity to compound ([1]; Breast HS-578T CL5006): 1
- classification of cell line as Low(1), Medium(2), High(3) sensitivity to compound ([1]; Breast MDA-MB-231 CL5005): 1
- classification of cell line as Low(1), Medium(2), High(3) sensitivity to compound ([1]; Breast T-47D CL5014): 1
- classification of cell line as Low(1), Medium(2), High(3) sensitivity to compound ([1]; CNS SF-268 CL12014): 2
- classification of cell line as Low(1), Medium(2), High(3) sensitivity to compound ([1]; CNS SF-295 CL12015): 3
- classification of cell line as Low(1), Medium(2), High(3) sensitivity to compound ([1]; CNS SF-539 CL12016): 3
- classification of cell line as Low(1), Medium(2), High(3) sensitivity to compound ([1]; CNS U251(I) CL12009): 2
- classification of cell line as Low(1), Medium(2), High(3) sensitivity to compound ([1]; Colon COLO-250 CL4010): 2
- classification of cell line as Low(1), Medium(2), High(3) sensitivity to compound ([1]; Colon HCC-2998 CL4002): 2
- classification of cell line as Low(1), Medium(2), High(3) sensitivity to compound ([1]; Colon HCT-15 CL4015): 3
- classification of cell line as Low(1), Medium(2), High(3) sensitivity to compound ([1]; Colon HCT-116 CL4003): 3
- classification of cell line as Low(1), Medium(2), High(3) sensitivity to compound ([1]; Colon KM12 CL4017): 2
- classification of cell line as Low(1), Medium(2), High(3) sensitivity to compound ([1]; Leukemia HL-60(I) CL7008): 2
- classification of cell line as Low(1), Medium(2), High(3) sensitivity to compound ([1]; Leukemia K562(I) CL7005): 3
- classification of cell line as Low(1), Medium(2), High(3) sensitivity to compound ([1]; Leukemia RPMI-8226(I) CL7010): 2
- classification of cell line as Low(1), Medium(2), High(3) sensitivity to compound ([1]; Leukemia SR CL7019): 3
- classification of cell line as Low(1), Medium(2), High(3) sensitivity to compound ([1]; Melanoma LOX IMVI CL10001): 3
- classification of cell line as Low(1), Medium(2), High(3) sensitivity to compound ([1]; Melanoma SK-MEL-2 CL10005): 1
- classification of cell line as Low(1), Medium(2), High(3) sensitivity to compound ([1]; Melanoma SK-MEL-5 CL10007): 2
- classification of cell line as Low(1), Medium(2), High(3) sensitivity to compound ([1]; Melanoma SK-MEL-28 CL10008): 1
- classification of cell line as Low(1), Medium(2), High(3) sensitivity to compound ([1]; Melanoma UACC-62 CL10020): 3
- classification of cell line as Low(1), Medium(2), High(3) sensitivity to compound ([1]; NSCLC A549/ATCC CL1004): 3
- classification of cell line as Low(1), Medium(2), High(3) sensitivity to compound ([1]; NSCLC EKVX CL1008): 1
- classification of cell line as Low(1), Medium(2), High(3) sensitivity to compound ([1]; NSCLC HOP-62 CL1026): 2
- classification of cell line as Low(1), Medium(2), High(3) sensitivity to compound ([1]; NSCLC HOP-92 CL1029): 1
- sensitivity classification Low(1)/Medium(2)/High(3) ([1]; NSCLC NCI-H23(I) CL1001): 2
- classification of cell line as Low(1), Medium(2), High(3) sensitivity to compound ([1]; NSCLC NCI-H226 CL1013): 1
- sensitivity classification Low(1)/Medium(2)/High(3) ([1]; NSCLC NCI-H332M CL1017): 2
- sensitivity classification Low(1)/Medium(2)/High(3) ([1]; NSCLC NCI-H460 CL1021): 3
- sensitivity classification Low(1)/Medium(2)/High(3) ([1]; Ovarian IGROV1 CL6010): 2
- sensitivity classification Low(1)/Medium(2)/High(3) ([1]; Ovarian OVCAR-3 CL6001): 2
- sensitivity classification Low(1)/Medium(2)/High(3) ([1]; Ovarian OVCAR-4 CL6002): 1
- sensitivity classification Low(1)/Medium(2)/High(3) ([1]; Ovarian OVCAR-5 CL6003): 2
- sensitivity classification Low(1)/Medium(2)/High(3) ([1]; Prostate DU-145 CL11003): 2
- sensitivity classification Low(1)/Medium(2)/High(3) ([1]; Renal A498 CL9013): 1
- sensitivity classification Low(1)/Medium(2)/High(3) ([1]; Renal ACHN CL9023): 2
- sensitivity classification Low(1)/Medium(2)/High(3) ([1]; Renal RXF-393 CL9016): 1
- sensitivity classification Low(1)/Medium(2)/High(3) ([1]; Renal SN12C CL9008): 3
- sensitivity classification Low(1)/Medium(2)/High(3) ([1]; Renal TK10 CL9024): 1
- sensitivity classification Low(1)/Medium(2)/High(3) ([1]; Renal UO-31 CL9004): 2
- −Log (GI50) ([2]; Leukemia HL-60(I) CL7008): 7.4
- −Log (GI50) ([2]; Melanoma M14 CL10014): 7.5
- −Log (GI50) ([2]; NSCLC EKVX CL1008): 5.0
- −Log (GI50) ([2]; NSCLC HOP-92 CL1029): 5.1
- −Log (GI50) ([2]; Renal 786-0 CL9018): 7.5
